Like-named read-outs stand apart in the source and are kept apart here.
Tests used:
[1] = system: hamsters and other test species; experiment: Animal tests: effective dose for neuroactivity; format: in vivo; details: for threshold effective dose (administered parenterally): parenteral
Procedure: Animal tests indicate a threshold effective dose of moxalactam (administered parenterally) to be about 50 μg/kg of body weight. Based on animal test data and on the known distribution of parenterally administered moxalactam between the brain and other body tissues, that the effective minimum neurogenic protease inhibiting, concentration of moxalactam in the brain is about 30 nM. […] For parenterally administered moxalactam the minimum effective dose in hamsters and other test species is about 50 micrograms per kg of body weight, more or less. The use of moxalactam in an oral dosage form, preferably modified or derivatized in the form of an active ester, is estimated to range from about 2.5 to about 50 mg per dose, much less than the dose of moxalactam necessary to provide therapeutically effective antibiotic concentration. The effective oral dose of clavulanate is expected to be about 0.1 to about 10 mgs per dose.

golden hamsters = experiment: Seed finding model of anxiety; format: in vivo, Syrian golden hamsters (Mesocricetus auratus)
Description: Clavulanic acid (CLAV) is structurally similar to the beta-lactam antibiotics. A most robust and simple bioassay for screening beta-lactams for CNS activity is the golden hamster seed finding model of anxiety. Briefly, hamsters are deprived of food overnight. The following day they are exposed to the additional stress of being taken from their home cage and placed in a novel environment for a few minutes. This manipulation stimulates the release of the stress hormone cortisol (FIG. 37). During their absence from the home cage, sunflower seeds are hidden under the bedding in one of the corners. When returned to the home cage, hamsters routinely scramble along the walls for 1-2 min before settling down, locating and eating the seeds. However, animals treated with the benzodiazepine anxiolytic chlordiazepoxide find seeds in less than 10 sec.
Male, Syrian golden hamsters (Mesocricetus auratus) (120-130 g) obtained from Harlan Sprague-Dawley Laboratories (Indianapolis, Ind.) were housed individually in Plexiglas cages (24 cm×24 cm×20 cm), maintained on a reverse light:dark cycle (14L:10D; lights on at 19:00 hr) and provided food and water ad libitum. A range of concentrations of CLAV (saline vehicle, 0.1, 1.0, 10, 100 1,000 ng/kg) were tested in six groups of hamsters (4-8/group)(FIG. 25). All tests were conducted during the dark phase of the circadian cycle under dim red illumination. Prior to testing all animals were fasted for 20-24 hrs. Ninety min after intraperitoneal (IP) injection of drug, animals were taken from their home cage and placed into a holding cage for 2 min. During their absence, six sunflower seeds were buried under the bedding in one corner of their home cage. Animals were placed back into their home cage randomly facing any one of the empty corners and timed for their latency to find the seeds in a five min observation period. Latency times were analyzed with a one-way ANOVA followed by Scheffe's post hoc tests. Assumption of equal variances was tested (Hartley's F-max=2.1 p>0.05)
It was hypothesized that CLAV functioned as an anxiolytic in the seed finding assay by blocking NAALADase activity in the brain. If this notion were true then it would be predicted that drugs known to block NAALADase should also enhance seed finding. To this end, animals were treated with N-acetyl-beta-aspartyl-glutamic acid (beta-NAAG), a competitive inhibitor of NAALADase (Serval et al., 1992) and tested in the seed finding model of anxiety. The study was similar to that outlined in Section I with one notable exception. […] Beta-NAAG (FW 304) was given in a dose of 3 ng in a volume of 1 μl saline ICV. The average adult hamster brain weights ca. 1.2 g of which 22% is extracellular fluid. The estimated beta-NAAG concentration was 11 ng/ml or 36 nM.
Two groups of six animals each were fasted overnight as previously described and tested the following day. One group was treated with beta-NAAG and the other saline vehicle and one hr later timed for latency to find the hidden sunflower seeds. A Student t-test for unpaired data was used for statistical comparisons.

[2] = Estimated fluid and brain concentrations after dosing hamsters; format: in vivo, hamster
Procedure: The adult male hamsters used in these studies weighed around 125 g. […] CLAV has a volume of distribution approximating the extracellular fluid volume. The extracellular water content of lean body mass is approximately 22%.
To this end, animals were treated with N-acetyl-beta-aspartyl-glutamic acid (beta-NAAG), a competitive inhibitor of NAALADase (Serval et al., 1992) and tested in the seed finding model of anxiety. The study was similar to that outlined in Section I with one notable exception. […] Beta-NAAG (FW 304) was given in a dose of 3 ng in a volume of 1 μl saline ICV. The average adult hamster brain weights ca. 1.2 g of which 22% is extracellular fluid.

[3] = in vivo, cited from earlier work
rats [4] = experiment: Motor activity in an open field (plus-maze animals); format: in vivo, rat
Procedure: However, this depression of motor activity disappears following repeated administration of CDP over several days. […] To control for any non-specific effects of Mox and CDP on motor activity following their direct injection into the brain, animals were tested in the open field 30 min prior to testing in the plus (FIG. 18).
Immediately after each of the plus-maze tests reported above in Section II, animals were tested for general motor activity in an “open field.” Animals were placed into a large clean Plexiglas cage (48×32×40 cm) devoid of bedding. This open field was delineated into equal quadrants by tape on the underside of the cage. Animals were scored for motor activity by counting the number of quadrants traversed in 1 min.

rats [5] = experiment: Morris water maze, cue navigation; format: in vivo, rat
Procedure: (§1) On the day following the last day (Day 4) of spatial navigation, animals were tested for cue navigation. In these tests, the platform was raised above water level. One hr before testing animals were treated with Mox or saline vehicle. The same animals that were treated with Mox during spatial navigation were treated with Mox for cue navigation. Animals were run through a series of two minute trials with 45 min between trials. At each trial, the platform was moved to a different quadrant. The cue navigation study was identical to the spatial navigation except the platform was visible and the testing was done over five consecutive trials done on a single day. Animals were scored for latency to find the platform, percent time spent in each quadrant, path distance and swim speed for all testing periods
as §1, with “CLAV” for “Mox”, “animals” for “animals that were”, “min” for “minute”

[6] = 140 g hamster, IP injection of 14 μg

Q: Which results are given for `O=C(O)[C@H]1/C(=C/CO)O[C@@H]2CC(=O)N21` [CLAV, Clavulanic acid]?
A: effective i.p. dose ([1]; i.p.): less than 1 microgram/kg; i.p. doses with psychotropic effects (antianxiety, antiaggression, cognition enhancement) ([1]; i.p.): less than 1 μg/kg; latency to find the sunflower seeds vs vehicle (golden hamsters; 1 ng/kg IP, 90 min): not significantly different; dose with maximal efficacy in the seed finding test (golden hamsters; IP): 10 ng/kg body weight; latency to find the sunflower seeds (golden hamsters; doses of 10 ng and above (up to 1,000 ng/kg) IP, 90 min): less than 8.0 sec; estimated concentration in extracellular water ([2]; CLAV 1.25 ng in 27.5 ml of water (10 ng/kg, 125 g hamster)): 0.045 ng/mL; estimated concentration in the brain ([2]; CLAV 10 ng/kg, CSF/plasma ratio 0.25): around 50 μM; estimated concentration in extracellular water (molar) ([2]; CLAV 10 ng/kg, formula weight ca. 240): about 200 μM; blood-brain barrier transport / CNS penetrability [3]: readily passes the blood-brain barrier; blood-brain barrier transport / CNS penetrability ([3]; listed as Clavulanate): good blood brain barrier transport; open field activity (quadrants traversed in 1 min) (rats [4]; CLAV 1.0 μg/kg IP, immediately after plus-maze): no significant differences; distance traveled to find the platform (rats [5]; CLAV): not significantly different; latency to find the platform (rats [5]; CLAV): no main effect for treatments; percentage of time spent in each quadrant (rats [5]; CLAV): no significant difference between treatments; swim rate (rats [5]; CLAV): no significant main effect

Q: What does the source list for `CO[C@@]1(NC(=O)C(C(=O)O)c2ccc(O)cc2)C(=O)N2C(C(=O)O)=C(CSc3nnnn3C)CO[C@@H]21` (stereo partly drawn) [Mox, 7-β-[2-carboxy-2-(4-hydroxyphenyl)acetamido]-7α-methoxy-3-[[(1-methyl-1H-tetrazol-5-yl)thio]methyl]-1-oxa-1-dethia-3-cephem-4-carboxylic acid]?
A: threshold effective dose (administered parenterally) ([1]; listed as Moxalactam): ≥ 50 μg/kg of body weight; threshold effective dose (administered parenterally) ([1]; listed as moxalactam): about 50 μg/kg of body weight; change in seed finding time (golden hamsters; dose not given): reduction in seed finding time from minutes to seconds; estimated CSF concentration [2, 6]: 15 ng/mL; estimated serum concentration [2, 6]: 0.1 ng/mL; estimated (effective minimum) concentration of moxalactam in the brain ([2]; following 50 μg/kg, listed as moxalactam): about 30 nM; blood-brain barrier transport / CNS penetrability [3]: greatest penetrability into the CNS; blood-brain barrier transport / CNS penetrability ([3]; listed as Moxalactam): can penetrate the blood brain barrier; general motor activity in the open field (rats [4]; 1 mM direct injection into the brain, 30 min prior to plus-maze): no significant effect; path length (rats [5]; Mox): much shorter path length; percentage of time spent in each quadrant (rats [5]; Mox): no significant difference between treatments; swim speed (rats [5]; Mox): no significant difference; latency to find the platform (rats [5]; Mox, trials 1, 3 and 4): significantly shorter latencies
